From US4539402A, “Quinazolinone derivatives” (Troponwerke GmbH & Co., priority 1982, dated 1985)
Like-named read-outs stand apart in the source and are kept apart here.

How the values were obtained:
Assay type in all cases: in vivo
orientation motility = assay: influence on orientation motility in mice (sedative action); conditions: Mus musculus, po, read-out: ED50 (influence on orientation motility, sedative action)
Method: Influence on orientation motility in mice was tested to determine the sedative action; an ED50 of 0.5 mg/kg perorally was found for the compound of Example 4.

carrageenan oedema = assay: antiphlogistic action, carrageenan oedema (modified method of Winter et al.); conditions: po; peroral; pure λ-carrageenan as 0.25% suspension in physiological saline
Method: Exp. Biol. Med. 111, 544 (1962), with the modification that pure λ-carrageenan as a 0.25% strength suspension in physiological saline solution was used for oedema provocation. The following ED50 values, for example, were determined using this procedure: […]

[1] = benzoquinone test (analgesic action); conditions: Mus musculus, po; perorally; mice
[2] = Randall-Selitto test (analgesic action); conditions: Rattus norvegicus, po; perorally, rats

SMILES	ED50 (carrageenan oedema) [mg/kg]	ED50 (orientation motility) [mg/kg]	further results
O=C1c2ccccc2N(c2cccc([N+](=O)[O-])c2)C2=NCCN12 [Example 4, 10-(3-Nitrophenyl)-2,3-dihydroimidazo-[2,1-b]-quinazolin-5(10H)-one]	1.3	–	ED50 (orientation motility; perorally, mice): 0.5 mg/kg; ED50 [1]: 3.1 mg/kg; ED50 [2]: 3.4 mg/kg
O=C1c2ccccc2N(c2cccc(C(F)(F)F)c2)C2=NCCN12 [Example 5, 10-(3-Trifluoromethylphenyl)-2,3-dihydroimidazo-[2,1-b]-quinazolin-5(10H)-one]	25.2	–	–
Nc1cccc(N2C3=NCCN3C(=O)c3ccccc32)c1 [Example 9, 10-(3-Aminophenyl)-2,3-dihydroimidazo-[2,1-b]-quinoazolin-5(10H)-one]	3.1	–	–
CN(C)CCCN1c2ccccc2Sc2ccc(Cl)cc21 [chlorpromazine]	–	3.05	–
CN1C(=O)CN=C(c2ccccc2)c2cc(Cl)ccc21 [diazepam]	–	2.8	–
